# Reference: US20260232691A1, “NBD1 MODULATORS AND METHODS OF USING THE SAME” (Sionna Therapeutics Inc., priority 2023, published 2026)
# Tests used:
# NBD1 = test: Aggregation analysis using differential static light scattering (DSLS), thermal stability of NBD1; format: binding, Human; conditions: 100 μM compound; ΔTagg = Tagg minus average Tagg of DMSO control wells; purified recombinant NBD1
# Experimental: Purified recombinant NBD1 was produced using previously described methods (A. Schmidt, J. L. Mendoza, P. J. Thomas (2011) Biochemical and Biophysical Approaches to Probe CFTR Structure (365-376) M. D. Amaral, K. Kunzelmann (eds.), Cystic Fibrosis, Methods in Molecular Biology 741, Springer Science+Business Media). The effect of test compounds on thermal stability of NBD1 was evaluated by differential static light scattering (DSLS) using the Harbinger Stargazer-384 instrument (Epiphyte Three, Toronto, Canada). Test compounds were dissolved and diluted to desired concentrations in 100% DMSO. The compounds or DMSO controls (100 nL) were stamped into wells of a […] low volume optical plate (Corning Inc., Corning, NY) using the Echo 555 acoustic liquid handler (Labcyte Inc., San Jose, CA).
# NBD1 protein was diluted to 0.2 mg/ml in S200 buffer (50 mM Tris-HCl, 150 mM NaCl, 5 mM MgCl2, 2 mM ATP, 2 mM DTT, pH7.6) containing 1% glycerol. 10 uL of protein solution was aliquoted into the 384-well plate harboring the test compounds and 10 uL mineral oil was overlayed onto the protein solution, using the epMotion robotic liquid handler (Eppendorf North America, Hauppauge, NY). After placing into the Stargazer instrument, the plate was heated at 1° C. per minute to 70° C. Images were captured from 25° C. to 70° C. every 0.5° C. At the end of the experiment run, instrument software integrated image files and analyzed data automatically. A […] regression curve was generated for each well, representing the increase in light scattering over time. A temperature of aggregation (Tagg) was calculated based on the inflection point of the curve. To better compare data across experiments the average Tagg for DMSO control wells was calculated and subtracted from values for wells containing compounds to obtain a “ΔTagg” value. These ΔTagg values reflect stabilizing efficacy of the compounds.
# [1] = target: T1, CFTR (primary human bronchial epithelial cells from a ΔF508 homozygous CF donor, CF-HBE cells) (Homo sapiens, UniProt P13569, DEL508-508); test: TECC24 recording of CFTR-mediated transepithelial chloride transport, AUC fold over DMSO; format: cell-based; conditions: test agent AUC of forskolin-stimulated IEQ divided by vehicle (DMSO) AUC, 48 hours incubation
# T1 construct: Primary human bronchial epithelial cells from a ΔF508 homozygous CF donor; host or cells: primary human bronchial epithelial cells (CF-HBE), ΔF508/ΔF508 donor
# Experimental: The effects of a test agent on CFTR-mediated transepithelial chloride transport was measured using TECC24 recording analysis. Test agents were solubilized in DMSO. Solubilized test agents were mixed with incubation medium containing DMEM/F12, Ultroser G (2%; Crescent Chemical, catalog #67042), Hyclone Fetal Clone II (2%; GE Healthcare, catalog #SH30066.02), bovine brain extract (0.25%; Lonza, catalog #CC-4098), insulin ([…]), IL-13 (10 ng/mL), hydrocortisone (20 nM), transferrin ([…]), triiodothyronine (500 nM), ethanolamine (250 nM), epinephrine (1.5 μM), phosphoethanolamine (250 nM), and retinoic acid (10 nM). Primary human bronchial epithelial cells from a ΔF508 homozygous CF donor (CF-HBE cells; from University of North Carolina Cystic Fibrosis Tissue Procurement Center), grown on Transwell HTS 24-well cell culture inserts (Costar, catalog #3378), were exposed to test agents or controls dissolved in incubation medium. The CF-HBE cells were cultured at 36.5° C. for 48 hours before TECC24 recordings were performed in the presence or absence of test agent, a positive control or vehicle (DMSO).
# Following incubation, the transwell cell culture inserts containing the test agent or control-treated CF-HBE cells were loaded onto a TECC24 apparatus (TECC v7 or MTECC v2; EP Design) to record the transepithelial voltage (VT) and resistance (TEER) using 4 AgCl electrodes per well configured in current-clamp mode. The apical and basolateral bath solutions both contained (in mM) 140 NaCl, 5 KCl, 2 CaCl2), 1 MgCl2, 10 Hepes, and 10 glucose (adjusted to pH 7.4 with NaOH). To inhibit basal Na+ absorption, the ENaC inhibitor benzamil (10 μM) was added to the bath. Then, the adenylate cyclase activator, forskolin (10 μM), was added to the bath to activate CFTR. The forskolin-stimulated Cl—transport was halted by addition of CFTR inhibitor-172 (20 μM) to the bath at the end of the experiment to confirm specificity. VT and TEER recordings were digitally acquired at routine intervals using TECC or MTECC software (EP Design). VT and TEER were transformed into equivalent transepithelial Cl—current (IEQ), and the Area Under the Curve (AUC) of the IEQ time course between forskolin and CFTR inhibitor-172 addition is generated using Excel (Microsoft). Efficacy is expressed as the ratio of the test agent AUC divided by vehicle AUC. EC50s based on AUC are generated using the non-linear regression log(agonist) vs. response function in Prism software (Graphpad) with HillSlope fixed=1.
# If a test agent increased the AUC of the forskolin-stimulated IEQ relative to vehicle in CF-HBE cells, and this increase was inhibited by CFTR inhibitor-172, then the test agent was considered a CFTR corrector.
# T1 sequence (P13569 with tags, fused parts or gaps DEL508-508): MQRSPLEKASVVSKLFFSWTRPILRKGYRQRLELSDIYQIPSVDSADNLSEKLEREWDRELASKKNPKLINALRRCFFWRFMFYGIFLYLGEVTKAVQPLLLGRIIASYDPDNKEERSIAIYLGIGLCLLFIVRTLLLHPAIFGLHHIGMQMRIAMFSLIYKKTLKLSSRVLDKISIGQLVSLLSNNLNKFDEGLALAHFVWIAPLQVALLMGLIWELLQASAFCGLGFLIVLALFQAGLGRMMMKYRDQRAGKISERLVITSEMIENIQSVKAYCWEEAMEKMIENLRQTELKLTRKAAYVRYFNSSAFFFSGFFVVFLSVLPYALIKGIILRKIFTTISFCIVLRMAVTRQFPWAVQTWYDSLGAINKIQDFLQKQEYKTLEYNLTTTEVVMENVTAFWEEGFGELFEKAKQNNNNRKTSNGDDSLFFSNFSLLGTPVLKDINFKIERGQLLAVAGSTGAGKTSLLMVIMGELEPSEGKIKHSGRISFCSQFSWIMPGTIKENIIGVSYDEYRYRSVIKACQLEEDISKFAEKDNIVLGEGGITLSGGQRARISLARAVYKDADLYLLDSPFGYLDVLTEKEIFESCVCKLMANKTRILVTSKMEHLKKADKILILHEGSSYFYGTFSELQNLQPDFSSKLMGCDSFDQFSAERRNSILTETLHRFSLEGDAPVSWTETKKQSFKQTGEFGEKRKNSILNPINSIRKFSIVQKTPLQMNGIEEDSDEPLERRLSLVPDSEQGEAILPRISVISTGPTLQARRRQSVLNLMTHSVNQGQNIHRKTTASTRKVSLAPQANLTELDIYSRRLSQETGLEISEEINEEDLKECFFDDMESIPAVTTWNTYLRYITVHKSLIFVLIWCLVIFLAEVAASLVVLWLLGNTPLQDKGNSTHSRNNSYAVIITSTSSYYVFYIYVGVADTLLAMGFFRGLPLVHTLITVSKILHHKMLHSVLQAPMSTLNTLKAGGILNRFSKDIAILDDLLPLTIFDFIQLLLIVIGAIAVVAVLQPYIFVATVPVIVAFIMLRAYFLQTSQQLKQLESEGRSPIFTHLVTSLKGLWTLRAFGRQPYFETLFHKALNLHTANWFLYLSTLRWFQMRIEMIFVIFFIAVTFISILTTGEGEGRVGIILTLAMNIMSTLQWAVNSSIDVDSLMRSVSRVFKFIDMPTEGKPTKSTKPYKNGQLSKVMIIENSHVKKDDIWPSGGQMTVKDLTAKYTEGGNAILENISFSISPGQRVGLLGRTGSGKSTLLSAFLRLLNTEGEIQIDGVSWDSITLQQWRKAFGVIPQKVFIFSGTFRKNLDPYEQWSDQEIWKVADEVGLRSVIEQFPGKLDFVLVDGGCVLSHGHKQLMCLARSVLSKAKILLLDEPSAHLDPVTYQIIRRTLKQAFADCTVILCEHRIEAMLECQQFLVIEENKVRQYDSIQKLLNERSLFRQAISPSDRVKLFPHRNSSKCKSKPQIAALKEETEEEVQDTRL
compound,measurement,setting,value
"C[C@@H](c1cccc(CC(=O)O)c1F)c1cnc2n1CCc1ccc(Oc3c(F)cc4[nH]ccc4c3F)cc1-2 (single isomer, unassigned) [Example 1]",DSLS NBD1/3D Human Stability delta-T (° C.) @ 100 (μM),NBD1,A (A: T ≥ 8° C.)
"C[C@H](c1cccc(CC(=O)O)c1F)c1cnc2n1CCc1ccc(Oc3c(F)cc4[nH]ccc4c3F)cc1-2 (single isomer, unassigned) [Example 2]",DSLS NBD1/3D Human Stability delta-T (° C.) @ 100 (μM),NBD1,A (A: T ≥ 8° C.)
"C[C@@H](c1cccc(CCC(=O)O)c1F)c1cnc2n1CCc1ccc(Oc3c(F)cc4[nH]ccc4c3F)cc1-2 (single isomer, unassigned) [Example 5]",DSLS NBD1/3D Human Stability delta-T (° C.) @ 100 (μM),NBD1,B (B: 4-8° C.)
same,TECC24 @ 10 uM over DMSO,[1],C (“C” refers to AUC @10 uM <= 4)
"C[C@H](c1cccc(CCC(=O)O)c1F)c1cnc2n1CCc1ccc(Oc3c(F)cc4[nH]ccc4c3F)cc1-2 (single isomer, unassigned) [Example 6]",DSLS NBD1/3D Human Stability delta-T (° C.) @ 100 (μM),NBD1,A (A: T ≥ 8° C.)
same,TECC24 @ 10 uM over DMSO,[1],A (“A” refers to AUC @10 uM >= 12)
"CC(c1nc2n(n1)CC(O)COc1ccc(Oc3c(F)cc4[nH]ccc4c3F)cc1-2)c1cccc(CCC(=O)O)c1F (single isomer, unassigned) [Example 13, 3-[3-[1-[14-[(4,6-difluoro-1H-indol-5-yl)oxy]-8-hydroxy-10-oxa-3,5,6-triazatricyclo[9.4.0.02,6]pentadeca-1(15),2,4,11,13-pentaen-4-yl]ethyl]-2-fluoro-phenyl]propanoic acid]",DSLS NBD1/3D Human Stability delta-T (° C.) @ 100 (μM),NBD1,A (A: T ≥ 8° C.)
same,TECC24 @ 10 uM over DMSO,[1],C (“C” refers to AUC @10 uM <= 4)
"CC(c1nc2n(n1)CC(O)COc1ccc(Oc3c(F)cc4[nH]ccc4c3F)cc1-2)c1cccc(CCC(=O)O)c1F (single isomer, unassigned) [Example 14, 3-[3-[1-[14-[(4,6-difluoro-1H-indol-5-yl)oxy]-8-hydroxy-10-oxa-3,5,6-triazatricyclo[9.4.0.02,6]pentadeca-1(15),2,4,11,13-pentaen-4-yl]ethyl]-2-fluoro-phenyl]propanoic acid]",DSLS NBD1/3D Human Stability delta-T (° C.) @ 100 (μM),NBD1,A (A: T ≥ 8° C.)
same,TECC24 @ 10 uM over DMSO,[1],B (“B” refers to AUC @ 10 uM between 4-12)
"CC(c1nc2n(n1)CCOc1ccc(Oc3c(F)cc4[nH]ccc4c3F)cc1-2)c1cccc(CCC(=O)O)c1F (single isomer, unassigned) [Example 15, 3-[3-[1-[10-[(4,6-difluoro-1H-indol-5-yl)oxy]-5,6-dihydro-[1,2,4]triazolo[1,5-d][1,4]benzoxazepin-2-yl]ethyl]-2-fluoro-phenyl]propanoic acid]",DSLS NBD1/3D Human Stability delta-T (° C.) @ 100 (μM),NBD1,A (A: T ≥ 8° C.)
same,TECC24 @ 10 uM over DMSO,[1],A (“A” refers to AUC @10 uM >= 12)
"CC(c1nc2n(n1)CCOc1ccc(Oc3c(F)cc4[nH]ccc4c3F)cc1-2)c1cccc(CCC(=O)O)c1F (single isomer, unassigned) [Example 16, 3-[3-[1-[10-[(4,6-difluoro-1H-indol-5-yl)oxy]-5,6-dihydro-[1,2,4]triazolo[1,5-d][1,4]benzoxazepin-2-yl]ethyl]-2-fluoro-phenyl]propanoic acid]",DSLS NBD1/3D Human Stability delta-T (° C.) @ 100 (μM),NBD1,C (C: ≤ 4° C.)
"CC(c1cccc(CC(=O)O)c1F)c1cnc2c3cc(Oc4c(F)cc5[nH]ccc5c4F)ccc3ccn12 (stereo not shown) [Example 3, 2-(3-(1-(9-((4,6-difluoro-1H-indol-5-yl)oxy)imidazo[2,1-a]isoquinolin-3-yl)ethyl)-2-fluorophenyl)acetic acid]",DSLS NBD1/3D Human Stability delta-T (° C.) @ 100 (μM),NBD1,A (A: T ≥ 8° C.)
same,TECC24 @ 10 uM over DMSO,[1],A (“A” refers to AUC @10 uM >= 12)
"O=C(O)CCc1cccc(Cc2nc3n(n2)Cc2ccc(Oc4c(F)cc5[nH]ccc5c4F)cc2-3)c1F [Example 4, 3-(3-((8-((4,6-difluoro-1H-indol-5-yl)oxy)-5H-triazolo[5,1-a]isoindol-2-yl)methyl)-2-fluorophenyl)propanoic acid]",DSLS NBD1/3D Human Stability delta-T (° C.) @ 100 (μM),NBD1,B (B: 4-8° C.)
same,TECC24 @ 10 uM over DMSO,[1],B (“B” refers to AUC @ 10 uM between 4-12)
"CC(c1cccc(CCC(=O)O)c1F)c1cnc2c3cc(Oc4c(F)cc5[nH]ccc5c4F)ccc3ccn12 (stereo not shown) [Example 7, 3-(3-(1-(9-((4,6-difluoro-1H-indol-5-yl)oxy)imidazo[2,1-a]isoquinolin-3-yl)ethyl)-2-fluorophenyl)propanoic acid]",DSLS NBD1/3D Human Stability delta-T (° C.) @ 100 (μM),NBD1,A (A: T ≥ 8° C.)
"CC(c1cn2c(n1)-c1cc(Oc3c(F)cc4[nH]ccc4c3F)ccc1CCC2)c1cccc(CCC(=O)O)c1F (stereo not shown) [Example 8, 3-(3-(1-(10-((4,6-difluoro-1H-indol-5-yl)oxy)-6,7-dihydro-5H-benzo[c]imidazo[1,2-a]azepin-2-yl)ethyl)-2-fluorophenyl)propanoic acid]",DSLS NBD1/3D Human Stability delta-T (° C.) @ 100 (μM),NBD1,A (A: T ≥ 8° C.)
"CC(c1nc2n(n1)CCCc1ccc(Oc3c(F)cc4[nH]ccc4c3F)cc1-2)c1cccc(CCC(=O)O)c1F (stereo not shown) [Example 9, 3-(3-(1-(10-((4,6-difluoro-1H-indol-5-yl)oxy)-6,7-dihydro-5H-benzo[c][1,2,4]triazolo[1,5-a]azepin-2-yl)ethyl)-2-fluorophenyl)propanoic acid]",DSLS NBD1/3D Human Stability delta-T (° C.) @ 100 (μM),NBD1,B (B: 4-8° C.)
"COC(=O)CCc1cccc(C(C)c2nc3n(n2)CCCOc2ccc(Oc4c(F)cc5[nH]ccc5c4F)cc2-3)c1F (stereo not shown) [Example 10, methyl 3-(3-(1-(11-((4,6-difluoro-1H-indol-5-yl)oxy)-6,7-dihydro-5H-benzo[b][1,2,4]triazolo[5,1-d][1,5]oxazocin-2-yl)ethyl)-2-fluorophenyl)propanoate]",DSLS NBD1/3D Human Stability delta-T (° C.) @ 100 (μM),NBD1,C (C: ≤ 4° C.)
same,TECC24 @ 10 uM over DMSO,[1],C (“C” refers to AUC @10 uM <= 4)
"CC(c1nc2n(n1)CCCOc1ccc(Oc3c(F)cc4[nH]ccc4c3F)cc1-2)c1cccc(CCC(=O)O)c1F (stereo not shown) [Example 11, 3-[3-[1-[14-[(4,6-difluoro-1H-indol-5-yl)oxy]-10-oxa-3,5,6-triazatricyclo[9.4.0.02,6]pentadeca-1(15),2,4,11,13-pentaen-4-yl]ethyl]-2-fluoro-phenyl]propanoic acid]",DSLS NBD1/3D Human Stability delta-T (° C.) @ 100 (μM),NBD1,A (A: T ≥ 8° C.)
same,TECC24 @ 10 uM over DMSO,[1],C (“C” refers to AUC @10 uM <= 4)
"CC(c1nc2n(n1)CC(CO)Oc1ccc(Oc3c(F)cc4[nH]ccc4c3F)cc1-2)c1cccc(CCC(=O)O)c1F (stereo not shown) [Example 12, 3-[3-[1-[10-[(4,6-difluoro-1H-indol-5-yl)oxy]-6-(hydroxymethyl)-5,6-dihydro-[1,2,4]triazolo[1,5-d][1,4]benzoxazepin-2-yl]ethyl]-2-fluoro-phenyl]propanoic acid]",DSLS NBD1/3D Human Stability delta-T (° C.) @ 100 (μM),NBD1,A (A: T ≥ 8° C.)
